Here are results for 1 substance from patent US20220257702A1, “STABLE ALBUVIRTIDE COMPOSITIONS” (priority 2019, published 2022).

Data set [1] is described as follows: Stability of lyophilized Albuvirtide-PB upon storage at −20° C. (HPLC). Conditions: in words, Table 6. It counts as physicochemical. How it is done: (§1) The liquid compositions having albuvirtide and PB were then lyophilized and their stability were tested. Part of the organic solvent could be removed using reduced-pressure evaporation. Stability of Albuvirtide-PB upon lyophilization, upon storage at 25° C., 6° C. and −20° C. were tested using HPLC. The lyophilized powder of Albuvirtide-PB were kept at 25° C., 6° C. and −20° C. for certain periods of time while their purities were monitored during such periods by HPLC.

The conditions of data set [2]: cited from earlier work.
Data set [3] relates to HIV-1. Conditions: background statement; cited from earlier work.
The nature of data set [4]: Stability of lyophilized albuvirtide compositions upon storage at 25° C. (HPLC). To be noted: in words. It counts as physicochemical. Here is the method: as §1
Data set [5] in a line: Stability of lyophilized Albuvirtide-PB upon storage at 6° C. (HPLC). It is filed as physicochemical. Conditions: in words. Here is the method:
as §1

For albuvirtide, the “purity of albuvirtide during storage for 3 month at −20° C.” value in data set [1] was “barely changed”. Moreover, in data set [2], the in vivo half-life entry is on record as “long half-life”. Besides, in data set [3], the “concentration at which viral entry is inhibited” value is “low nanomolar concentration”; the “in vitro activity against HIV-1” value is “in vitro activity against various HIV-1 strains and certain variants that are resistant to enfuvirtide (Fuzeon)”. Further, the “purity of albuvirtide during storage for 5 days at 25° C.” value in data set [4] (Table 9) is “barely changed”. In data set [4] (Table 11), the “purity of albuvirtide during storage for 1 month at 25° C.” value is recorded as “barely changed”. Also, the “change in purity of albuvirtide during storage for 1 month at 6° C.” value in data set [5] (Table 5) was “equivalent to that during storage at 25 °C for 5 days”. Besides, in data set [5] (Table 10), the “purity of albuvirtide during storage for 2 months at 6° C.” value is recorded as “barely changed”.
